Source: patent US7045343B2, “Sterilization indicator test packs” (3M Innovative Properties Company, priority 1998, dated 2006)

Assays:
[1] = test system: enzyme associated with Bacillus stearothermophilus spores; assay: Rapid enzyme fluorescence readout of dual rapid readout indicators after prevacuum steam sterilization; assay type: biochemical; settings: 4-pulse prevacuum steam 121° C.
How it was run: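 Bacillus stearothermophilus ATCC 7953 spores were coated with a sterilant-resistant chemical solution and pipetted onto paper strips at about 1×10^6 spores per strip. Each strip sat in a dual rapid readout indicator beside a crushable inner container of nutrient medium holding 4-methylumbelliferyl-alpha-D-glucoside at pH 7.6. Indicators went through a 4-pulse prevacuum steam cycle at 121° C, were activated, incubated at 60° C, and read for fluorescence on a 3M ATTEST Model 190 Rapid Autoreader.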

[2] = test system: Bacillus stearothermophilus spores; assay: Spore outgrowth (color change) of indicators after prevacuum steam sterilization; assay type: cell-based; settings: 4-pulse prevacuum steam 121° C.
How it was run: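 Bacillus stearothermophilus ATCC 7953 spores were cleaned, mixed into a heated sterilant-resistant coating chemical solution and pipetted onto paper strips at about 1×10^6 spores per strip. The strips were dried and placed in indicators, then exposed to a 4-pulse prevacuum steam cycle at 121° C. After exposure the media ampoule was crushed, and growth was judged visually as a purple-to-yellow color change after 168 hours at 60° C.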

[3] = test system: enzyme associated with Bacillus stearothermophilus spores; assay: Rapid enzyme fluorescence readout of indicators after hydrogen peroxide plasma sterilization; assay type: biochemical; settings: for FLUORESCENCE - PERCENT POSITIVE 1 HR / FLUORESCENCE - PERCENT POSITIVE 2 HR / FLUORESCENCE - PERCENT POSITIVE 3 HR / FLUORESCENCE - PERCENT POSITIVE 4 HR / FLUORESCENCE - PERCENT POSITIVE 5 HR: 1–22 min diffusion;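 on FLUORESCENCE - PERCENT POSITIVE 5 HR: percent of growth-positive indicators that were also fluorescence-positive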
Method: (§1) Sterilization indicators for Examples 6–9 were prepared as described above with the exception that closure member 22 of the sterilization indicator was constructed of TYVEK™ high-density polyethylene fiber material, commercially available from E.I. du Pont de Nemours and Co., Wilmington, Del.
(§2) Sterilization indicators were made as described above with spores that had been coated with each of the chemicals and concentrations listed in Table 6. The indicators were placed in instrument trays and exposed to a hydrogen peroxide plasma sterilization procedure at 45–55° C. in a STERRAD™ 100SI GMP Sterilizer, obtained from Advanced Sterilization Products Co., Irvine, Calif. During the sterilization procedure a vacuum was drawn in the sterilization chamber for 5–6 minutes until the pressure was reduced to 300 mTorr. A 1.8 ml aliquot of an aqueous solution of 58–60% hydrogen peroxide was then injected into the sterilization chamber over a period of about 6 minutes, yielding an empty chamber concentration of […] hydrogen peroxide, and hydrogen peroxide vapor was allowed to diffuse throughout the chamber for 1–22 minutes at 6–10 Torr. A vacuum was then drawn, reducing the pressure to 500 mTorr and removing all detectable hydrogen peroxide vapor from the chamber.
(§3) After exposure to the sterilization procedure, the indicators were removed from the sterilizer and the inner containers containing the enzyme substrate and nutrient medium were crushed. The indicators were then incubated at 60° C. and examined for fluorescence every hour for 5 hours using a 3M™ ATTEST™ Model 190 Rapid Autoreader, commercially available from 3M Company, St. Paul, Minn. Additionally, spore growth, as indicated by a color change from purple to yellow, was determined visually after 168 hours of incubation.
(§4) The number of growth positive indicators detected after 168 hours of incubation is recorded in Table 6.
as §2, with “7.” for “6.”
as §2, with “8.” for “6.”, “chamber. […]” for “chamber.”

[4] = test system: Bacillus stearothermophilus spores; assay: Spore outgrowth (color change) of indicators after hydrogen peroxide plasma sterilization; assay type: cell-based; settings: 1–22 min diffusion
Method: as §1, §2, §3, §4
as §2, with “7.” for “6.”
as §2, with “8.” for “6.”, “chamber. […]” for “chamber.”

[5] = Example 4, 50 mg/ml coating, 7–18 min
[6] = Example 4, 100 mg/ml coating, 7–18 min
[7] = Example 5, 50 mg/ml coating, 7–13 min
[8] = Example 5, 100 mg/ml coating, 7–13 min

## Decaglyceryl Trioleate
[1]; [5]
  FLUORESCENCE - PERCENT POSITIVE 1 HR: 0.0%
  FLUORESCENCE - PERCENT POSITIVE 2 HR: 21.1%
  FLUORESCENCE - PERCENT POSITIVE 3 HR: 47.4%
  FLUORESCENCE - PERCENT POSITIVE 4 HR: 68.4%
[1]; [6]
  FLUORESCENCE - PERCENT POSITIVE 1 HR: 23.1%
  FLUORESCENCE - PERCENT POSITIVE 2 HR: 50.0%
  FLUORESCENCE - PERCENT POSITIVE 3 HR: 73.1%
  FLUORESCENCE - PERCENT POSITIVE 4 HR: 92.3%
[2]; [5]
  NO. GROWTH POSITIVE 168 HR: 19
[2]; [6]
  NO. GROWTH POSITIVE 168 HR: 26
[3]; Example 6, 50 mg/ml coating
  FLUORESCENCE - PERCENT POSITIVE 1 HR: 85.0%
  FLUORESCENCE - PERCENT POSITIVE 2 HR: 97.5%
  FLUORESCENCE - PERCENT POSITIVE 3 HR: 100%
  FLUORESCENCE - PERCENT POSITIVE 4 HR: 100%
  FLUORESCENCE - PERCENT POSITIVE 5 HR: 100%
[4]; Example 6, 50 mg/ml coating
  NO. GROWTH POSITIVE 168 HR: 40

## polyoxyethylene (20) sorbitan monostearate [POE(20) Sorbitan Monostearate]
[1]; [7]
  FLUORESCENCE - PERCENT POSITIVE 1 HR: 0%
  FLUORESCENCE - PERCENT POSITIVE 2 HR: 0%
  FLUORESCENCE - PERCENT POSITIVE 3 HR: 0%
  FLUORESCENCE - PERCENT POSITIVE 4 HR: 0%
[1]; [8]
  FLUORESCENCE - PERCENT POSITIVE 1 HR: 0%
  FLUORESCENCE - PERCENT POSITIVE 2 HR: 0%
  FLUORESCENCE - PERCENT POSITIVE 3 HR: 0%
  FLUORESCENCE - PERCENT POSITIVE 4 HR: 0%
[2]; [7]
  NO. GROWTH POSITIVE 168 HR: 5
[2]; [8]
  NO. GROWTH POSITIVE 168 HR: 2
[3]; 2–3 hours after exposure
  accuracy of sterilization indicators compared to indicators made with untreated spores: improved
[3]; Example 7, 50 mg/ml coating
  FLUORESCENCE - PERCENT POSITIVE 1 HR: 100%
  FLUORESCENCE - PERCENT POSITIVE 2 HR: 100%
  FLUORESCENCE - PERCENT POSITIVE 3 HR: 100%
  FLUORESCENCE - PERCENT POSITIVE 4 HR: 100%
  FLUORESCENCE - PERCENT POSITIVE 5 HR: 100%
[3]; Example 7, 100 mg/ml coating
  FLUORESCENCE - PERCENT POSITIVE 1 HR: 50%
  FLUORESCENCE - PERCENT POSITIVE 2 HR: 50%
  FLUORESCENCE - PERCENT POSITIVE 3 HR: 62.5%
  FLUORESCENCE - PERCENT POSITIVE 4 HR: 75%
  FLUORESCENCE - PERCENT POSITIVE 5 HR: 75%
[4]; Example 7, 50 mg/ml coating
  NO. GROWTH POSITIVE 168 HR: 6
[4]; Example 7, 100 mg/ml coating
  NO. GROWTH POSITIVE 168 HR: 8

## Hexaglyn Di-Stearate
[3]; 1–3 hours after exposure
  accuracy of sterilization indicators compared to indicators made with untreated spores: improved
[3]; Example 8, 25 mg/ml coating
  FLUORESCENCE - PERCENT POSITIVE 1 HR: 100%
  FLUORESCENCE - PERCENT POSITIVE 2 HR: 100%
  FLUORESCENCE - PERCENT POSITIVE 3 HR: 100%
  FLUORESCENCE - PERCENT POSITIVE 4 HR: 100%
  FLUORESCENCE - PERCENT POSITIVE 5 HR: 100%
[3]; Example 8, 50 mg/ml coating
  FLUORESCENCE - PERCENT POSITIVE 1 HR: 100%
  FLUORESCENCE - PERCENT POSITIVE 2 HR: 100%
  FLUORESCENCE - PERCENT POSITIVE 3 HR: 100%
  FLUORESCENCE - PERCENT POSITIVE 4 HR: 100%
  FLUORESCENCE - PERCENT POSITIVE 5 HR: 100%
[3]; Example 8, 100 mg/ml coating
  FLUORESCENCE - PERCENT POSITIVE 1 HR: 100%
  FLUORESCENCE - PERCENT POSITIVE 2 HR: 100%
  FLUORESCENCE - PERCENT POSITIVE 3 HR: 100%
  FLUORESCENCE - PERCENT POSITIVE 4 HR: 100%
  FLUORESCENCE - PERCENT POSITIVE 5 HR: 100%
[4]; Example 8, 25 mg/ml coating
  NO. GROWTH POSITIVE 168 HR: 16
[4]; Example 8, 50 mg/ml coating
  NO. GROWTH POSITIVE 168 HR: 16
[4]; Example 8, 100 mg/ml coating
  NO. GROWTH POSITIVE 168 HR: 16

## Alkyl Polyglucoside
[3]; Example 8, 20 mg/ml coating
  FLUORESCENCE - PERCENT POSITIVE 1 HR: 0%
  FLUORESCENCE - PERCENT POSITIVE 2 HR: 0%
  FLUORESCENCE - PERCENT POSITIVE 3 HR: 0%
  FLUORESCENCE - PERCENT POSITIVE 4 HR: 0%
  FLUORESCENCE - PERCENT POSITIVE 5 HR: 0%
[3]; Example 8, 40 mg/ml coating
  FLUORESCENCE - PERCENT POSITIVE 1 HR: 0%
  FLUORESCENCE - PERCENT POSITIVE 2 HR: 0%
  FLUORESCENCE - PERCENT POSITIVE 3 HR: 0%
  FLUORESCENCE - PERCENT POSITIVE 4 HR: 0%
  FLUORESCENCE - PERCENT POSITIVE 5 HR: 0%
[4]; Example 8, 20 mg/ml coating
  NO. GROWTH POSITIVE 168 HR: 5
[4]; Example 8, 40 mg/ml coating
  NO. GROWTH POSITIVE 168 HR: 1

## polyoxyethylene (60) glycerol monostearate [POE(60) Glycerol Monostearate]
[3]; 2–3 hours after exposure
  accuracy of sterilization indicators compared to indicators made with untreated spores: improved
[3]; Example 7, 50 mg/ml coating
  FLUORESCENCE - PERCENT POSITIVE 1 HR: 100%
  FLUORESCENCE - PERCENT POSITIVE 2 HR: 100%
  FLUORESCENCE - PERCENT POSITIVE 3 HR: 100%
  FLUORESCENCE - PERCENT POSITIVE 4 HR: 100%
  FLUORESCENCE - PERCENT POSITIVE 5 HR: 100%
[3]; Example 7, 100 mg/ml coating
  FLUORESCENCE - PERCENT POSITIVE 1 HR: 57.1%
  FLUORESCENCE - PERCENT POSITIVE 2 HR: 57.1%
  FLUORESCENCE - PERCENT POSITIVE 3 HR: 71.4%
  FLUORESCENCE - PERCENT POSITIVE 4 HR: 71.4%
  FLUORESCENCE - PERCENT POSITIVE 5 HR: 71.4%
[4]; Example 7, 50 mg/ml coating
  NO. GROWTH POSITIVE 168 HR: 7
[4]; Example 7, 100 mg/ml coating
  NO. GROWTH POSITIVE 168 HR: 7

## POE(5) Glyceryl Monooleate
[1]; [7]
  FLUORESCENCE - PERCENT POSITIVE 1 HR: 0%
  FLUORESCENCE - PERCENT POSITIVE 2 HR: 0%
  FLUORESCENCE - PERCENT POSITIVE 3 HR: 0%
  FLUORESCENCE - PERCENT POSITIVE 4 HR: 0%
[1]; [8]
  FLUORESCENCE - PERCENT POSITIVE 1 HR: 0%
  FLUORESCENCE - PERCENT POSITIVE 2 HR: 0%
  FLUORESCENCE - PERCENT POSITIVE 3 HR: 0%
  FLUORESCENCE - PERCENT POSITIVE 4 HR: 0%
[2]; [7]
  NO. GROWTH POSITIVE 168 HR: 2
[2]; [8]
  NO. GROWTH POSITIVE 168 HR: 2
